Data on two compounds can be found in patent US20250099475A1, “METHODS OF TREATING HYPERTENSION BY PERIODIC SUPPRESSION OF ALDOSTERONE SYNTHASE” (Mineralys Therapeutics, Inc., priority 2022, published 2025).

A short description of data set [1]: Example 4 dose-ranging study: safety (adverse events, serum potassium, eGFR). The class given is in vivo, human. How it is done: Subjects orally administered the assigned study drug (Compound A HBr or placebo) according to the assigned dosing regimen for 8 weeks beginning on Study Day 1. All subjects in Part 1 (regardless of dosing group) received BID dosing to preserve the integrity of the blind; active drug is administered as the morning dose for all QD dose groups. Subjects returned to the research facility or were seen by the clinical investigator or approved home health care professional at the end of Study Weeks 1, 2, 3, 4, 5, 6, 7, and 8 (±2 days) for protocol-defined efficacy and safety assessments and procedures, assessment of adverse events (AEs), and confirmation of compliance with study drug usage. Subjects also completed a telephone visit and blood pressure (BP) check at home approximately 3 days post last dose of study drug. Subjects attended up to 14 full clinic visits, including a pre-Screening visit, a Screening/start of Placebo Run-in visit, a second visit during Placebo Run-in, a clinic visit to initiate the ABPM procedure, a Randomization visit, 8 weekly visits during double-blind treatment, and an end-of-study visit scheduled 4 weeks after the last study treatment for final efficacy and safety assessments.

Data set [2] can be described thus: 13-week repeat-dose oral toxicology study in rats. The class given is in vivo, rat. To be noted: both sexes, Sprague Dawley, rat, in vivo, oral, 13-week, read-out: no observed adverse effect level (NOAEL). How it is done: (§1) The toxicologic profile of Compound A was assessed in several toxicology studies, including 13-week repeat-dose oral studies in Sprague Dawley rats and cynomolgus monkeys, a standard battery of genotoxicity studies, preliminary embryo-fetal development studies in rats and rabbits, and in vitro and in vivo phototoxicity studies. Rats and monkeys were selected for the general toxicology studies on the basis of pharmacology and metabolism data that indicated these animals would have metabolism similar to that of humans. Studies were performed in accordance with GLP regulations.
(§2) Doses in the 13-week toxicology studies were 0, 50, 150, 450 (female), and 600 (male) mg/kg/d in Sprague Dawley rats. In cynomolgus monkeys (females and males), the doses were 0, 10, 30, and 100 mg/kg/d. Hematoxylin-and-eosin-stained sections (nominal thickness of approximately 5 μm) were prepared from the formalin-fixed paraffin-embedded organs/tissues of all animals in the toxicology studies.

Another data set concerns Sprague Dawley rats. In words: 13-week repeat-dose oral toxicology study in rats. The class given is in vivo, rat. The note with it: 13-week daily dosing, doses ≥150 mg/kg/d. How it is done: as §1, §2
Setting [3] is: pooled (Part 1 and Part 2) 100 mg QD safety set (n=60).

Marks after values point to notes of the source that are not given here.

As for `CC(=O)N[C@H]1CC[C@H](NC(=O)CN2CCN(c3nncc(-c4ccc(C)cc4)n3)CC2)CC1` [Compound A HBr], the “Study drug discontinuation: Hyperkalemia, subjects (%)” value in data set [1] (100 mg QD Pooled, N 60) is listed as 2 (3.3%); in data set [1] (Part 1 100 mg QD, N 29), 2 (6.9%); in data set [1] (Part 1 All active, N 159) it was 6 (3.8%); in data set [1] (Part 2 100 mg QD, N 31), 0; in data set [1] (Total active, N 190), 6 (3.2%). Further, the “Study drug discontinuation: Hyponatremia, subjects (%)” value in data set [1] (100 mg QD Pooled, N 60) is reported as 1 (1.7%); in data set [1] (Part 1 100 mg QD, N 29), 0; in data set [1] (Part 1 All active, N 159), 0; in data set [1] (Part 2 100 mg QD, N 31), 1 (3.4%); in data set [1] (Total active, N 190), 1 (0.5%). For the same compound, the “Study drug discontinuation: Hypotension, subjects (%)” value in data set [1] (100 mg QD Pooled, N 60) is listed as 2 (3.3%); in data set [1] (Part 1 100 mg QD, N 29), 1 (3.4%); in data set [1] (Part 1 All active, N 159) it was 2 (1.2%); in data set [1] (Part 2 100 mg QD, N 31), 1 (2.8%); in data set [1] (Total active, N 190) it was 3 (1.6%). For the same compound, the “Study drug discontinuation: Other possibly related, subjects (%)” value in data set [1] (100 mg QD Pooled, N 60) was 1 (1.7%); in data set [1] (Part 1 100 mg QD, N 29), 1 (3.4%); in data set [1] (Part 1 All active, N 159), 1 (0.6%); in data set [1] (Part 2 100 mg QD, N 31), 0; in data set [1] (Total active, N 190), 1 (0.5%). Also, the “Study drug discontinuation: Other unrelated, subjects (%)” value in data set [1] (100 mg QD Pooled, N 60) is 4 (6.7%); in data set [1] (Part 1 100 mg QD, N 29) it was 3 (6.0%); in data set [1] (Part 1 All active, N 159), 11 (6.9%); in data set [1] (Part 2 100 mg QD, N 31), 1 (2.8%); in data set [1] (Total active, N 190), 12 (6.3%). Also, the “Individuals with verified or multiple increased Serum K+ 5.2-5.5 mMol/L, number (%)” value in data set [1] (100 mg QD, Part 1) was 5 (18.5%); in data set [1] (100 mg QD, Part 2), 1 (4%); in data set [1] (100 mg QD, Pooled), 6 (10.3%). For the same compound, the “Individuals with verified or multiple increased Serum K+ 5.6-6.0 mMol/L, number (%)” value in data set [1] (100 mg QD, Part 1) is given as 3 (10.7%); in data set [1] (100 mg QD, Part 2), 0; in data set [1] (100 mg QD, Pooled), 3 (5.2%). Also, the “Individuals with verified or multiple increased Serum K+ 6.1-6.5 mMol/L, number (%)” value turned out to be 0 in data set [1] (100 mg QD, Part 1); 0 in data set [1] (100 mg QD, Part 2); 0 in data set [1] (100 mg QD, Pooled). The “Individuals with increased Serum K+ >6.5 mMol/L, number” value in data set [1] (100 mg QD, Part 1, isolated incident not verified by repeat measurement) is reported as 1*. Also, the “Individuals with verified or multiple increased Serum K+ >6.5 mMol/L, number” value in data set [1] (100 mg QD, Part 2) came out at 0; in data set [1] (100 mg QD, Pooled) it was 0. Besides, the “Change in group mean serum potassium (K+), Mean” value in data set [1] (Part 1, N 26 (dose not given)) was “+0.50 mMol/L”; in data set [1] (Part 2, N 31 (dose not given)), “+0.23 mMol/L”; in data set [1] (Pooled, N 57 (dose not given)) it was “+0.35 mMol/L”. The “change in eGFR” value in data set [1] (dosing cohorts) is “dose-dependent and reversible reduction in eGFR”. In addition, the “effects on serum cortisol” value in data set [1] (setting [3]) was “no effects on serum cortisol”. The episodes of hyperkalemia result in data set [1] (setting [3]) was “few episodes of mild or moderate hyperkalemia and no episodes of severe hyperkalemia”. The “serious adverse events (SAEs) related to the study medication” value in data set [1] (whole trial) is “No serious adverse events (SAEs) related to the study medication”.

Consider `CC(=O)N[C@H]1CC[C@H](NC(=O)CN2CCN(c3nncc(-c4ccc(C)cc4)n3)CC2)CC1` [Compound A], for which the NOAEL at 13 weeks in data set [2] amounted to 50 mg/kg/day. In addition, the histopathological findings result in the data set on Sprague Dawley rats was “vacuolation of zona fasciculata cells and hypertrophy of zona glomerulosa cells in the adrenal glands”.
